What was measured:
[1] = Vmax towards phosphodiesterase 1
[2] = Ratio of Vmax to that of Km towards phosphodiesterase I (PDE I)
[3] = Ratio of Vmax to that of Km towards phosphodiesterase II (PDE II)
[4] = Affinity for phosphodiesterase 1
[5] = Vmax towards phosphodiesterase I and II; NS = Non-substrate

For `Nc1ccn(C2C[C@@H](O)[C@@H](COP(=O)(O)O[C@@H]3CC(n4cnc5c(N)ncnc54)O[C@@H]3CO)O2)c(=O)n1` (some centres undefined), the Vmax [1] was 141 mM/min, the Ratio [2] was 52.4 and the Ratio [3] was 21.1. For the same compound, the Km [4] was 2700 µM.

For `Nc1ccn([C@H]2C[C@H](O)[C@@H](COP(=O)(O)O[C@H]3[C@H](n4cnc5c(N)ncnc54)CO[C@@H]3COP(=O)(O)O)O2)c(=O)n1`, the Vmax [5] was “Non substrate”.

With `Nc1ccn(C2C[C@@H](O)[C@@H](COP(=O)(O)O[C@H]3[C@@H](CO)OC[C@@H]3n3cnc4c(N)ncnc43)O2)c(=O)n1` (some centres undefined) the Vmax [1] was 19.2 mM/min, the Ratio [2] was 15.4 and the Ratio [3] was 4.5. It also gave a Km [4] of 1250 µM.

For `Nc1ccn(C2C[C@@H](O)[C@@H](COP(=O)(O)O[C@@H]3CC(n4ccc(N)nc4=O)O[C@@H]3CO)O2)c(=O)n1` (some centres undefined), the Vmax [1] was 1450 mM/min, the Ratio [2] was 1610 and the Ratio [3] was 87.8. For the same compound, the Km [4] was 900 µM.

For `Nc1ccn(C2C[C@@H](OP(=O)(O)OC[C@H]3OC[C@H](n4ccc(N)nc4=O)[C@H]3O)[C@@H](COP(=O)(O)O)O2)c(=O)n1` (some centres undefined), the Vmax [5] was “Non substrate”.

Reference: ChEMBL document CHEMBL1146705, “Resistance towards exonucleases of dinucleotides with stereochemically altered internucleotide phosphate bonds” (Bioorg Med Chem Lett, 2004)
